Measured values taken from patent US6656937B2, “Substituted glutarimides and their use as inhibitors of IL-12 production” (Gruenenthal, GmbH, priority 2000, dated 2003).
≈ marks a conversion by molar mass, not a printed value. Structures can show the parent of a compound that is named as a salt.

Columns and labels:
[1] = test system: IL-12 production by LPS-activated monocytes; test: Stimulation of human monocytes with lipopolysaccharide for secretion of IL-12 (IL-12 sandwich ELISA of culture supernatants); format: cell-based; conditions: CD14-positive human monocytes, 1 h preincubation with test substance, 20 μg/ml LPS from E. coli, 24 hours; for IC50: Monocyte, read-out: Inhibition of IL-12 production IC50
Experimental: Human monocytes were isolated from peripheral blood mononuclear cells (PBMC) obtained by means of a Ficoll density-gradient centrifugation of heparinized whole blood. To this end, the PBMC were incubated with a monoclonal antibody directed against the monocyte-specific surface molecule CD14 and to which superparamagnetic microbeads (Miltenyi Biotech, Bergisch Gladbach) are coupled. In order for the marked monocytes to be positively selected from the mixture of cells in the PBMC, the total cell suspension was transferred to a column with a ferromagnetic carrier matrix and the column placed in a magnetic field. This caused the cells loaded with microbeads to be bonded to the carrier matrix, whilst unmarked cells passed through the column and were discarded. After removing the matrix from the magnetic field, the antibody-loaded cells were eluted by rinsing the now demagnetised column with buffer. The purity of this CD 14-positive monocyte population thus obtained was around 95 to 98%. These monocytes were incubated in a density of 10^6 cells/ml culture medium (RPMI, supplemented with 10% fetal calf serum) with the test substances dissolved in DMSO for one hour at 37° C. and 5% CO2.20 μg/ml LPS from E. coli were then added. After 24 hours, cell-free culture supernatants were taken and tested for their IL-12 content.
The concentration of IL-12 in the cell culture supernatants was determined by means of sandwich ELISA using two anti-IL-12 monoclonal antibodies (Biosource Europe, Fleurus, Belgium). A reference standard curve with human IL-12 was included. The detection limit of the IL-12 ELISA was 10 pg/ml.

| Molecule | Inhibition of IL-12 production IC50 [1] [µg/mL] | Inhibition of IL-12 production Maximum (%) [1] [%] | IC50 [1] [µg/mL] | melting point |
| --- | --- | --- | --- | --- |
| COC(=O)c1cc(SCC2CCC(=O)NC2=O)ccc1[N+](=O)[O-] (stereo not drawn) [Example 18, 3-(2,6-dioxopiperidin-3-ylmethylsulfanyl)-6-nitro Methylbenzoate] | 3.0 | 57 | – | – |
| O=C1CC[C@H](NCc2ccccc2C(=O)N2CCOCC2)C(=O)N1 [Example 8.1] | 1.8 | 90 | – | – |
| CC(=O)Nc1ccccc1CNC1CCC(=O)NC1=O (stereo not drawn) [Example 16] | 3.0 | 95 | – | – |
| O=C1CC[C@@H](NCc2ccccc2C(=O)Nc2ccccc2)C(=O)N1 [Example 8.10, 2-[(3R)-(2,6-dioxopiperidin-3-ylamino)methyl]-N-phenyl benzamide] | – | 50 | – | – |
| O=CNc1ccccc1CNC1CCC(=O)NC1=O (stereo not drawn) [Example 17, N-{2-[(2,6-dioxopiperidin-3-ylamino)methyl]phenyl}Formamide] | – | 98 | 0.02 (≈ 0.0765 µM) | – |
| CCNC(=O)c1ccccc1CN[C@H]1CCC(=O)NC1=O [Example 8.4, 2-[(3S)-(2,6-dioxopiperidin-3-ylamino)methyl]-N-ethyl benzamide] | 0.9 | 80 | – | – |
| CCN(CC)C(=O)c1ccccc1CN[C@@H]1CCC(=O)NC1=O [Example 8.11, 2-[(3R)-(2,6-dioxopiperidin-3-ylamino)methyl]-N,N-diethyl benzamide] | 0.2 | 90 | – | – |
| O=C1CC[C@H](NCc2ccccc2C(=O)Nc2ccccc2)C(=O)N1 [Example 8.7, 2-[(3S)-(2,6-dioxopiperidin-3-ylamino)methyl]-N-phenylbenzamide] | – | 55 | 0.7 (≈ 2.07 µM) | – |
| COC(=O)c1cc(SCC2CCC(=O)NC2=O)ccc1N (stereo not drawn) [Example 19, 2-amino-5-(2,6-dioxopiperidin-3-ylmethylsulfanyl) methyl benzoate] | 5.0 | 66 | – | – |
| CCN(CC)C(=O)c1ccccc1CN[C@H]1CCC(=O)NC1=O [Example 7, 2-[(3S)-(2,6-dioxopiperidin-3-ylamino)methyl]-N,N-diethylbenzamide] | – | 90 | 1.5 (≈ 4.73 µM) | – |
| 2-[(3S)-(2,6-dioxopiperidin-3-ylamino)methyl]benzyl benzoate [Example 9.2] | 1.5 | 82 | – | – |
| O=C1CC[C@@H](NCc2ccccc2C(=O)O)C(=O)N1 [Example 6.2, 2-[(3R)-(2,6-dioxopiperidin-3-ylamino)methyl]benzoic acid] | – | 75 | 1 (≈ 3.81 µM) | – |
| COC(=O)c1ccccc1SCC1CCC(=O)NC1=O (stereo not drawn) [Example 13.3, 2-(2,6-dioxopiperidin-3-ylmethyl)sulfanyl) methyl benzoate] | 6.0 | 50 | – | – |
| COC(=O)c1ccccc1CN[C@H]1CCC(=O)NC1=O [Example 9.1, 2-[(3S)-(2,6-dioxopiperidin-3-ylamino)methyl]methyl benzoate] | 0.1 | 90 | – | – |
| {2-[(3S)-(2,6-dioxopiperidin-3-ylamino)methyl]benzoylamino}methyl acetate [Example 8.2] | 1.8 | 70 | – | – |
| NC(=O)c1ccccc1CN[C@H]1CCC(=O)NC1=O [Example 8.3, 2-[(3S)-(2,6-dioxopiperidin-3-ylamino)methyl]benzamide] | – | 90 | 0.15 (≈ 0.574 µM) | – |
| NNC(=O)c1ccccc1CN[C@H]1CCC(=O)NC1=O [Example 8.6, 2-[(3S)-(2,6-dioxopiperidin-3-ylamino)methyl]benzoic acid hydrazide] | – | 90 | 0.04 (≈ 0.145 µM) | – |
| O=C1CCC(NCc2ccccc2F)C(=O)N1 (racemic) (as salt: hydrochloride) [Example 2.29, 3-(2-fluorobenzylamino) piperidine-2,6-dione] | – | – | – | 245 to 247 °C |
| O=C1CC[C@H](NCc2ccccc2C(=O)N2CCCC2)C(=O)N1 [Example 8.5] | 2.0 | 80 | – | – |
| NC(=O)c1ccccc1CN[C@@H]1CCC(=O)NC1=O [Example 8.12, 2-[(3R)-(2,6-dioxopiperidin-3-ylamino)methyl]benzamide] | – | 84 | 1 (≈ 3.83 µM) | – |
| O=C1CC[C@H](NCc2ccccc2C(=O)O)C(=O)N1 [Example 6.1, 2-[(3S)-(2,6-dioxopiperidin-3-ylamino)methyl]benzoic acid] | – | 85 | 1 (≈ 3.81 µM) | – |
| O=C1CCC(NCc2cccc(F)c2)C(=O)N1 (racemic) (as salt: hydrochloride) [Example 2.19, 3-(3-fluorobenzylamino) piperidine-2,6-dione] | – | – | – | 231 to 235 °C |
| O=C1CCC(NCc2cc(Cl)cc(Cl)c2)C(=O)N1 (racemic) (as salt: hydrochloride) [Example 2.17, 3-(3,5-dichlorobenzylamino) piperidine-2,6-dione] | – | – | – | 234 to 238 °C |
| O=C1CCC(NCc2c(F)cccc2F)C(=O)N1 (racemic) (as salt: hydrochloride) [Example 2.3, 3-(2,6-difluorobenzylamino) piperidine-2,6-dione] | – | – | – | 208 to 215 °C (dec.) |
| CN(CC1CCC(=O)NC1=O)c1ccccc1 (stereo not drawn) [Example 11.10, 3-[(N-methyl-N-phenylamino)methyl]piperidine-2,6-dione] | – | – | – | 132 to 134 °C |
| O=C1CCC(CNc2cccc(C(=O)c3ccccc3)c2)C(=O)N1 (stereo not drawn) [Example 11.17, 3-[(3-benzoylphenylamino)methyl]piperidine-2,6-dione] | – | – | – | 152 to 158 °C |
